Laboratory results taken from ChEMBL document CHEMBL1147867, “Identification of antitumour activity of novel derivatives of 8-aryl-2,6,7,8-tetrahydroimidazo[2,1-c][1,2,4]triazine-3,4-dione and 8-aryl-4-imino-2,3,7,8-tetrahydroimidazo[2,1-c][1,2,4]triazin-3(6H)-one” (Bioorg Med Chem, 2007).
Calls of active or inactive are those of the source. No cut-off for these calls is given here.

How the values were obtained:
HeLa [1] = assay: Cytotoxicity against human HeLa cells at 50 ug/ml after 72 hrs; format: functional
A549 [2] = assay: Anticancer activity against human A549 cells at 50 ug/ml after 72 hrs; format: functional; conditions: A549, 72 h
HT-29 = assay: Anticancer activity against human HT 29 cells; format: functional, cell-based
[3] = Cytotoxicity against Vero cells at 50 ug/ml after 72 hrs; format: cell-based; conditions: chlorocebus sabaeus, read-out: Inhibition
A549 [4] = assay: Anticancer activity against human A549 cells at 10 ug/ml after 72 hrs; format: functional; conditions: A549, 72 h
[5] = Cytotoxicity against human LS180 cells at 50 ug/ml after 72 hrs; format: functional; conditions: LS180, 72 h
T47D [6] = assay: Cytotoxicity against human T47D cells at 10 ug/ml after 72 hrs; format: functional
Jurkat = assay: Anticancer activity against human jurkat cells; format: functional, cell-based
[7] = Cytotoxicity against Vero cells at 10 ug/ml after 72 hrs; format: cell-based; conditions: chlorocebus sabaeus, read-out: Inhibition
[8] = Cytotoxicity against human LS180 cells at 10 ug/ml after 72 hrs; format: functional; conditions: LS180, 72 h
HeLa [9] = assay: Cytotoxicity against human HeLa cells at 10 ug/ml after 72 hrs; format: functional
T47D [10] = assay: Cytotoxicity against human T47D cells at 50 ug/ml after 72 hrs; format: functional
LS180 = assay: Induction of DNA damage in LS180 cells at 37.9 uM; format: functional, cell-based; conditions: Homo sapiens
RPMI-8226 [11] = assay: Cell viability in human RPMI 8226 ECACC 87012702 cancer cells at 100 uM after 24 hrs by MTT assay; format: functional
[12] = Cell viability in HSF cells at 1 uM after 24 hrs by MTT assay; format: cell-based, Fibroblast; conditions: human, read-out: Activity
T47D [13] = assay: Induction of DNA damage in T47D cells at 37.9 uM; format: functional, cell-based; conditions: Homo sapiens
[14] = Cell viability in HSF cells at 50 uM after 24 hrs by MTT assay; format: cell-based, Fibroblast; conditions: human, read-out: Activity
HeLa [15] = assay: Induction of DNA damage in HeLa cells at 37.9 uM; format: functional, cell-based; conditions: Homo sapiens
[16] = Acute toxicity in mouse; format: organism-based; conditions: in vivo
[17] = Cell viability in HSF cells at 100 uM after 24 hrs by MTT assay; format: functional, Homo sapiens, Fibroblast
RPMI-8226 [18] = assay: Cell viability in human RPMI 8226 ECACC 87012702 cancer cells at 50 uM after 24 hrs by MTT assay; format: functional
RPMI-8226 [19] = assay: Cell viability in human RPMI 8226 ECACC 87012702 cancer cells at 1 uM after 24 hrs by MTT assay; format: functional

Cc1ccc(N2CCn3c2n[nH]c(=O)c3=N)cc1
inhibition at 50 µg/mL (HeLa [1]): 0%
inhibition at 50 µg/mL (A549 [2]): 38%
Activity (HT-29): Active
cytotoxicity at 72 h, 50 ug/ml [3]: 0%
inhibition at 10 µg/mL (A549 [4]): 37%
inhibition at 50 µg/mL [5]: 45%
inhibition at 10 µg/mL (T47D [6]): 0%
Activity (Jurkat): Active
cytotoxicity at 72 h, 10 ug/ml [7]: 0%
inhibition at 10 µg/mL [8]: 32%
inhibition at 10 µg/mL (HeLa [9]): 0%
inhibition at 50 µg/mL (T47D [10]): 0%

O=c1[nH]nc2n(c1=O)CCN2c1ccc(Cl)cc1
inhibition at 50 µg/mL (HeLa [1]): 26%
inhibition at 50 µg/mL (A549 [2]): 15%
Activity (LS180): Active
Activity (RPMI-8226 [11]): 61%
viability at 24 h, 1 µM [12]: 99%
Activity (T47D [13]): Active
viability at 24 h, 50 µM [14]: 95%
cytotoxicity at 72 h, 50 ug/ml [3]: 7%
inhibition at 10 µg/mL (A549 [4]): 0%
inhibition at 50 µg/mL [5]: 35%
inhibition at 10 µg/mL (T47D [6]): 5%
Activity (HeLa [15]): Active
cytotoxicity at 72 h, 10 ug/ml [7]: 0%
inhibition at 10 µg/mL [8]: 50%
LD50 [16]: > 2000 mg/kg
inhibition at 10 µg/mL (HeLa [9]): 2%
Activity [17]: 96%
Activity (RPMI-8226 [18]): 89%
inhibition at 50 µg/mL (T47D [10]): 1%
Activity (RPMI-8226 [19]): 104%
